Here are results for one compound from patent publication US20250270648A1, “MOLECULAR SIGNATURE FOR ASSESSING THE RESPONSIVENESS OF CANCER TO MITOCHONDRIA-TARGETED ANTIOXIDANTS” (UNIVERSITÉ CATHOLIQUE DE LOUVAIN, priority 2021, published 2025).

Test [1] deals with MDA-MB-231 human breast cancer cells. Nature of the test: Seahorse oximetry, oxygen consumption rates (OCRs). The format is cell-based. The note with it: MitoQ 100 nM, 48 h. On the procedure:
Oxygen consumption rates (OCRs) were determined on a Seahorse XF96 bioenergetic analyzer using the XF cell Mito stress kit (Agilent Technologies®), according to manufacturer's recommendations. Briefly, MDA-MB-231 (10^4 cells/well), SkBr3 (10^4 cells/well), MDA-MB-436 (10^4 cells/well) or MCF10A (10^5 cells/well) were plated on XF96 culture plates 16 h before experiments in DMEM containing 10% FBS, and treated ±MitoQ for 48 h. On the day of analysis, culture media were replaced by DMEM containing 10 mM glucose, 2 mM glutamine, 1.85 g/L NaCl, 3 mg/L phenol red, pH 7.4. Cells were incubated for 1 h in a CO2-free incubator before analysis. Sequentially, basal OCR was acquired without treatment; ATP-linked OCR after the addition of 1 μM of ATP synthase inhibitor oligomycin; maximal OCR after mitochondrial potential disruption using 1 μM of ionophore carbonyl cyanide-4-(trifluoromethoxy) phenylhydrazone (FCCP); and non-mitochondrial OCR after the addition of 0.5 μM of Complex I inhibitor rotenone together with 0.5 μM of Complex III inhibitor antimycin A. All data were normalized by total protein content (Bio-Rad® Protein Assay; catalogue #5000006) measured right after oximetry. Mitochondrial OCRs (mtOCRs) were calculated by subtracting non-mitochondrial OCRs to the corresponding basal, maximal and ATP-linked OCRs.

Test [2] concerns MCF10A normal breast epithelial cells. As to the kind of experiment: Mitochondrial potential, JC-10. The following applies: MitoQ 100 nM, 48 h. The format is cell-based, human. On the procedure:
(§1) The mitochondrial potential (ΔΨ) was measured using JC-10 Mitochondrial Membrane Potential Assay Kit (Abcam®, #ab112134), according to manufacturer's recommendations. Briefly, MDA-MB-231 (10^4 cells/well), SkBr3 (10^4 cells/well), MDA-MB-436 (10^4 cells/well) or MCF10A (10^5 cells/well) cells were seeded in 96-well plates and treated for 48 h±MitoQ. Cells were then washed twice and incubated with JC-10 (1× solution) for 45 min. Fluorescence intensities were measured at 490/525 nm and […] using a SpectraMax i3 spectrophotometer equipped with a MiniMax imaging cytometer (Molecular Devices®).

In test [3] the test system is MDA-MB-436 breast cancer cells. Nature of the test: Mitochondrial potential, JC-10. In kind it is cell-based, human. The note with it: MitoQ 100 nM, 48 h. On the procedure:
as §1

The test system of test [4] is MCF10A normal breast epithelial cells. As to the kind of experiment: Mitochondrial superoxide, EPR with MitoTEMPO-H ±PEG-SOD2. In kind it is cell-based, human. The following applies: MitoQ 100 nM, 48 h. On the procedure: Mitochondrial superoxide levels were determined using electron paramagnetic resonance (EPR) with MitoTEMPO-H as a specific mitochondrial superoxide probe ±PEG-SOD2 to specifically assign signals to mitochondrial superoxide. EPR measurements were performed using a Bruker EMX-Plus spectrometer, operating in X-band (9.85 GHz) and equipped with a PremiumX ultra low noise microwave bridge and a SHQ high sensitivity resonator. Typical settings were: microwave power: 20 mW; attenuation: 10 dB; modulation frequency: 100 kHz; modulation amplitude: 0.1 mT; time constant: 20.48 ms; conversion time: 22.58 ms; sweep width: 0.15 mT. Briefly, MDA-MB-231, SkBr3, MCF10A or MDA-MB-436 cells were treated ±MitoQ for 48 h, harvested and resuspended in PBS at 2×10^6 cells/mL. The experimental mixture was prepared with cell suspension, 1 mM DTPA and 150 μM MitoTEMPO-H. It was then aspirated into a gas-permeable polytetrafluoroethylene (PTFE) tubing that was placed in a quartz tube opened at both ends. The tube was directly inserted inside the EPR cavity that was heated at 310° K with air during all experiments. […] Net superoxide production was calculated by subtracting the double integration values of the […] with PEG-SOD2 to the control value at timepoint 15 min.

In test [5] the test system is MDA-MB-231 cells. Nature of the test: Intracellular ATP, CellTiter-Glo. In kind it is cell-based, human. The note with it: MitoQ 100 nM, 48 h. On the procedure:
Intracellular ATP levels were measured after 48 h of treatment ±MitoQ, using the CellTiter-Glo Luminescent Viability Assay (Promega®) on a Glomax 96 microplate luminometer (Promega®) following manufacturer's instructions. Results were normalized to cell number.
(In ATP-based viability assays light output follows the ATP content of the culture.)

Test [6] relates to MDA-MB-231 cells. Nature of the test: RNA sequencing. In kind it is cell-based, human. The note with it: MitoQ 500 nM, 48 h; |log 2 fold change|>1 and P<0.01. On the procedure: (§2) MDA-MB-231 and SkBr3 cancer cells were treated ±MitoQ for 48 h. Total mRNA was then extracted using the NucleoSpin RNA kit (Macherey-Nagel®), including DNAse treatment in the intermediary steps. mRNAs were quantified using the Qubit BR dsRNA assay kit (Thermo Fisher Scientific®), and mRNA integrity was evaluated on the Agilent 2100 Bioanalyzer using the RNA 6000 nano kit (Agilent®). All samples had RNA integrity number values ≥7.5. Libraries from control and treated samples were prepared starting from 150 ng of total mRNA using the KAPA RNA HyperPrep Kit with RiboErase (HMR) kit (KAPA Biosystems®) following the manufacturer's recommendations (KR1351—v1.16). Libraries were equimolarly pooled and sequenced on a single lane of an Illumina® NovaSeq 6000 platform. All libraries were sequenced at a depth of >50 million paired-end reads (2×100 bp reads) per sample. All sequencing data were analyzed using the Automated Reproducible MOdular workflow for preprocessing and differential analysis of RNAseq data (ARMOR) pipeline. In this pipeline, reads underwent a quality check using FastQC. Quantification and quality control results were summarized in a MultiQC report before being mapped using Salmon to the transcriptome index that was built using all Ensembl cDNA sequences obtained in the Homo_sapiens.GRCh38.cdna.all.fa file. Then, estimated transcript abundances from Salmon were imported into R using the tximeta package, and analyzed for differential gene expression with edgeR. To get a robust signature, only genes with |log 2 Fold Change|>1 and P<0.01 were retained.

For test [7], the system named is SkBr3 cells. As to the kind of experiment: RNA sequencing. The following applies: MitoQ 500 nM, 48 h; |log 2 fold change|>1 and P<0.01. The format is cell-based, human. On the procedure:
as §2

Test [8] relates to murine 4T1 breast cancer cells. As to the kind of experiment: Cell viability, crystal violet. In kind it is cell-based, mouse. The note with it: increasing doses of cisplatin ±100 nM MitoQ, 48 h. On the procedure: […] The solution was carefully removed and plates were washed twice with water. After drying protected by light, cells were resuspended in 50 μl DMSO and the plates were read with a Victor X4 plate reader (Perkin®).

Molecules are shown by their SMILES.

On to `COC1=C(OC)C(=O)C(CCCCCCCCCC[P+](c2ccccc2)(c2ccccc2)c2ccccc2)=C(C)C1=O` [MitoQ], for which the “basal, maximal and ATP-linked oxygen consumption rates (OCRs)” value in test [1] is “decreased”. The “mitochondrial potential (Δψ)” value in test [2] is on record as “not affected”. Besides, in test [3], the “AT (FIG. 14D, mitochondrial potential)” value is “repressed”. In addition, the mitochondrial superoxide production result in test [4] is listed as “not affected”. The ATP production result in test [5] is recorded as “overall decrease”. For the same compound, in test [6], the “number of downregulated transcripts” value is 1,943 and the “number of upregulated transcripts” value is 2,153. In test [7], the “number of downregulated transcripts” value was determined as 5 and the “number of upregulated transcripts” value stood at 20. The “cancer cell killing activity, cisplatin combined with MitoQ” value in test [8] is recorded as “did not interfere”.
